The numbers were not newly measured in paper PMC6650409, “Modeling the binding of diverse ligands within the Ah receptor ligand binding domain” (Scientific Reports, 2019), which cites them from elsewhere.

Residue numbers refer to the chain shown, from its start.

For series [1], the system named is Q377A mutant AhR. Details: method as in PMID 17223691. The conditions noted are these: mutation of Q377 to alanine; cited from earlier work.
In series [2] the target is T1, S359A mutant AhR (Mus musculus, UniProt P30561, S359A).
T1 construct: made in house; host or cells: in vitro, Promega TNT Quick rabbit reticulocyte lysate
T1 sequence (P30561 10-848 S359A): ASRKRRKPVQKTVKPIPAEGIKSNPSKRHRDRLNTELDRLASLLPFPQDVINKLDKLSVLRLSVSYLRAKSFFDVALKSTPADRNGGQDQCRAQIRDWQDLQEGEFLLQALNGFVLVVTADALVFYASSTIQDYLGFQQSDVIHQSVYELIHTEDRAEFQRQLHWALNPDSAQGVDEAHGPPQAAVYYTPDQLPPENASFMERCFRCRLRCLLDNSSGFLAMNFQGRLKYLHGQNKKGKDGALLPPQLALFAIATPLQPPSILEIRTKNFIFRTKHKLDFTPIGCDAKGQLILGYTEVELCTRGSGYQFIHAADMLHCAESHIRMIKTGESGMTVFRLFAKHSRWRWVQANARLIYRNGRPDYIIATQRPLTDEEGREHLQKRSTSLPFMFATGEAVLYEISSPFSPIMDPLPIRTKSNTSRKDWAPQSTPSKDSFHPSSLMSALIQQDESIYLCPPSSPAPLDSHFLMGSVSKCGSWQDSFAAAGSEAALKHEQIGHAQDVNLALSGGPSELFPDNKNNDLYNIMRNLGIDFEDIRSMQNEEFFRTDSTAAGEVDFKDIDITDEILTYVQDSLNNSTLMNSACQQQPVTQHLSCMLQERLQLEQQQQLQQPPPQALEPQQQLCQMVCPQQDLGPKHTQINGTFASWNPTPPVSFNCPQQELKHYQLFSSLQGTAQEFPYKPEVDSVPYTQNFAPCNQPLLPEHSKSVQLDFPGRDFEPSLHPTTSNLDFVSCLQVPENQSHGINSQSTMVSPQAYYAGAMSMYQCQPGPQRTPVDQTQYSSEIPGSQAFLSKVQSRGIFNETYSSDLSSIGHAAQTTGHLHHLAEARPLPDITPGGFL
Details: method as in PMID 21981577. To be noted: S359A mutation; cited from earlier work.

The target in series [3] is T2, M334A mutant AhR (Mus musculus, UniProt P30561, M334A).
T2 construct: made in house; host or cells: in vitro, Promega TNT Quick rabbit reticulocyte lysate
T2 sequence (P30561 10-848 M334A): T1 sequence (P30561 10-848 S359A) with M325A, A350S
Details: method as in PMID 21981577. To be noted: M334A mutation; cited from earlier work.

In series [4] the target is T3, C327A mutant AhR (Mus musculus, UniProt P30561, C327A).
T3 construct: made in house; host or cells: in vitro, Promega TNT Quick rabbit reticulocyte lysate
T3 sequence (P30561 10-848 C327A): T1 sequence (P30561 10-848 S359A) with C318A, A350S
Details: method as in PMID 21981577. To be noted: C327A mutation; cited from earlier work.

For `Clc1cc2c(cc1Cl)Oc1cc(Cl)c(Cl)cc1O2` [TCDD, 2,3,7,8-tetrachlorodibenzo-p-dioxin], the TCDD specific binding result in series [1] is given as “abolish”. Further, the TCDD binding activity result in series [2], in series [3] and in series [4] was “only partially affected” throughout.
